Columns and labels:
Type in all cases: cell-based
[1] = tested on: Enterococcus faecalis (ATCC 29212); assay: Cell viability assay (resazurin) screening for antibacterial activity; set-up: key: Positive: A positive result indicates antibacterial activity expressed as growth inhibition; Negative: a negative result indicates no antibacterial activity expressed as bacterial growth at the tested concentration; conditions: single high concentration of 1 mg/mL
[2] = tested on: Staphylococcus aureus (ATCC 25923); assay: as above; set-up: key: Positive: A positive result indicates antibacterial activity expressed as growth inhibition; Negative: a negative result indicates no antibacterial activity expressed as bacterial growth at the tested concentration; conditions: single high concentration of 1 mg/mL
[3] = tested on: MRSA-1 (clinical isolate, methicillin-resistant Staphylococcus aureus); assay: MIC by broth microdilution; conditions: for MIC: Staphylococcus aureus, MRSA, clinical isolate
Protocol: (§1) Bacteria of the genus Staphylococcus were selected for MIC investigation due to its clinical importance.
(§2) A broth microdilution method was used to measure MIC according to the Clinical and Laboratory Standards Institute guidelines. Two-fold serial dilutions of the test compound (8 concentrations ranged between 100-0.78 μg/mL) were tested. […] In each experiment, solvent (DMSO) was used as a negative control, un-treated control (composing of bacteria in Mueller-Hinton broth) was used as a growth control, blank (culture media alone) was used as sterility control. The 96-well microplate with the test compounds was incubated for 20 hours at 37° C. Turbidity in wells indicated bacterial growth. […] For the definite determination of MIC, CellTiter-Blue® Cell Viability Assay (Promega, USA) was used (as above). The MIC was defined as the lowest compound concentration that prevented the color change of the Cell Viability solution (absence of bacterial growth; thus, suspension remained blue in color). For the definite determination of MIC, CellTiter-Blue® Cell Viability Assay (Promega, USA) was used (as above). To each well of the 96-well microplate, 20 μL of the Cell Viability Assay solution was added to the overnight (20 hours culture) and incubated at 37° C. for 4 hours. After the end of the incubation, pink and blue colors were used to differentiate viable from dead bacterial suspensions, respectively. The MIC was defined as the lowest compound concentration that prevented the color change.

[4] = tested on: MRSA-2 (clinical isolate, methicillin-resistant Staphylococcus aureus); assay: MIC by broth microdilution
Protocol: as §1, §2

[5] = tested on: MRSA-3 (clinical isolate, methicillin-resistant Staphylococcus aureus); assay: MIC by broth microdilution
Protocol: as §1, §2

[6] = tested on: Escherichia coli (ATCC 25922); assay: Cell viability assay (resazurin) screening for antibacterial activity; set-up: key: Positive: A positive result indicates antibacterial activity expressed as growth inhibition; Negative: a negative result indicates no antibacterial activity expressed as bacterial growth at the tested concentration; conditions: single high concentration of 1 mg/mL
[7] = tested on: Pseudomonas aeruginosa (ATCC 27853); assay: as above; set-up: key: Positive: A positive result indicates antibacterial activity expressed as growth inhibition; Negative: a negative result indicates no antibacterial activity expressed as bacterial growth at the tested concentration; conditions: single high concentration of 1 mg/mL
[8] = tested on: UDH-6 (environmental isolate, S. haemolyticus); assay: MIC by broth microdilution; conditions: for MIC: Staphylococcus haemolyticus, environmental isolate
Protocol: (§3) Bacteria of the genus Staphylococcus were selected for MIC investigation due to its clinical importance. Compounds showing activity against S. aureus (ATCC 25923) were tested against 10 multidrug-resistant strains of Staphylococcus species, including: clinical isolates methicillin-resistant Staphylococcus aureus (MRSA) strains MRSA-1, MRSA-2, and MRSA-3, and environmental isolates S. saprophyticus (strains UDH-1, UDH-2, UDH-3 and UDH-4), S. haemolyticus (strains UDH-6 and UDH-7), and S. epidermidis strain UDH-5.
(§4) All these strains were resistant to at least three antibiotics from different classes, as confirmed by a disk diffusion assay.
(§5) A broth microdilution method was used to measure MIC according to the Clinical and Laboratory Standards Institute guidelines. Two-fold serial dilutions of the test compound (8 concentrations ranged between 100-0.78 μg/mL) were tested. Two reference antibiotics were used as quality controls (ciprofloxacin and amikacin). In each experiment, solvent (DMSO) was used as a negative control, un-treated control (composing of bacteria in Mueller-Hinton broth) was used as a growth control, blank (culture media alone) was used as sterility control. The 96-well microplate with the test compounds was incubated for 20 hours at 37° C. Turbidity in wells indicated bacterial growth. […] For the definite determination of MIC, CellTiter-Blue® Cell Viability Assay (Promega, USA) was used (as above). The MIC was defined as the lowest compound concentration that prevented the color change of the Cell Viability solution (absence of bacterial growth; thus, suspension remained blue in color). For the definite determination of MIC, CellTiter-Blue® Cell Viability Assay (Promega, USA) was used (as above). To each well of the 96-well microplate, 20 μL of the Cell Viability Assay solution was added to the overnight (20 hours culture) and incubated at 37° C. for 4 hours. After the end of the incubation, pink and blue colors were used to differentiate viable from dead bacterial suspensions, respectively. The MIC was defined as the lowest compound concentration that prevented the color change.

[9] = tested on: UDH-4 (environmental isolate, S. saprophyticus); assay: MIC by broth microdilution; conditions: Staphylococcus saprophyticus
Protocol: as §3, §4, §5

[10] = tested on: UDH-3 (environmental isolate, S. saprophyticus); assay: MIC by broth microdilution; conditions: for MIC: Staphylococcus saprophyticus, environmental isolate; for times lower than MIC of ciprofloxacin: UDH-3
Protocol: as §3, §4, §5

[11] = tested on: UDH-5 (environmental isolate, S. epidermidis); assay: MIC by broth microdilution; conditions: Staphylococcus epidermidis
Protocol: as §3, §4, §5

[12] = tested on: UDH-7 (environmental isolate, S. haemolyticus); assay: MIC by broth microdilution; conditions: for MIC: Staphylococcus haemolyticus, environmental isolate
Protocol: as §3, §4, §5

[13] = tested on: UDH-2 (environmental isolate, S. saprophyticus); assay: MIC by broth microdilution; conditions: Staphylococcus saprophyticus
Protocol: as §3, §4, §5

[14] = tested on: UDH-1 (environmental isolate, S. saprophyticus); assay: MIC by broth microdilution; conditions: for MIC: Staphylococcus saprophyticus, environmental isolate; for times lower than MIC of ciprofloxacin: UDH-1
Protocol: as §3, §4, §5

S. aureus (ATCC 25923) = assay: MIC by broth microdilution; conditions: Staphylococcus aureus, ATCC25923
Protocol: as §3, §5

[15] = tested on: Bacillus subtilis (environmental isolate); assay: Cell viability assay (resazurin) screening for antibacterial activity; set-up: key: Positive: A positive result indicates antibacterial activity expressed as growth inhibition; Negative: a negative result indicates no antibacterial activity expressed as bacterial growth at the tested concentration; conditions: single high concentration of 1 mg/mL

SMILES | antibacterial activity, Enterococcus faecalis [1] | antibacterial activity, Staphylococcus aureus [2] | MIC [3] | MIC [4] | MIC [5] | antibacterial activity, Escherichia coli [6] | antibacterial activity, Pseudomonas aeruginosa [7] | MIC [8] | MIC [9] | MIC [10] | MIC [11] | MIC [12] | MIC [13] | MIC [14] | times lower than MIC of ciprofloxacin [14] | MIC (S. aureus (ATCC 25923)) | antibacterial activity, Bacillus subtilis [15] | times lower than MIC of ciprofloxacin [10] | other results
COC(=O)CC1COc2c(cc3c4c2CCCN4CCC3)-c2c(NC(C)(C)C)n3c(-c4ccc(Br)cc4)csc3[n+]21 (centres unmarked) [Compound 1q] | Positive | Positive | 6.25 mg/L | 6.25 mg/L | 6.25 mg/L | Negative | Negative | 12.5 mg/L | 3.12 mg/L | 12.5 mg/L | 3.12 mg/L | 12.5 mg/L | 6.25 mg/L | 6.25 mg/L | approximately 10 times | 3.12 mg/L | Positive |  | 
COC(=O)CC1COc2c(cc3c4c2CCCN4CCC3)-c2c(NC(C)(C)C)n3c(-c4ccc(OC)cc4)c(-c4ccc(OC)cc4)sc3[n+]21 (centres unmarked) [Compound 1z] | Positive | Positive | 6.25 mg/L | 6.25 mg/L | 6.25 mg/L | Negative | Negative | 12.5 mg/L | 3.12 mg/L | 12.5 mg/L | 1.56 mg/L | 12.5 mg/L | 6.25 mg/L | 12.5 mg/L |  | 3.12 mg/L | Positive |  | 
COC(=O)CC1COc2c(cc3c4c2CCCN4CCC3)-c2c(NC(C)(C)C)n3c(-c4cccc5c4OCO5)c(C)sc3[n+]21 (centres unmarked) [Compound 1u] | Positive | Positive | 3.12 mg/L | 3.12 mg/L | 3.12 mg/L | Negative | Negative | 6.25 mg/L | 6.25 mg/L | 3.12 mg/L | 1.56 mg/L | 6.25 mg/L | 6.25 mg/L | 6.25 mg/L | approximately 10 times | 3.12 mg/L | Positive | approximately 20 times | times lower than the MIC of ciprofloxacin ([3]; MRSA-1): approximately 10 times; times lower than MIC of ciprofloxacin ([8]; UDH-6): approximately 10 times; times lower than MIC of ciprofloxacin ([12]; UDH-7): approximately 10 times
COC(=O)CC1COc2c(cc3c4c2CCCN4CCC3)-c2c(NC(C)(C)C)n3c4ccc(Br)cc4sc3[n+]21 (centres unmarked) [Compound 1v] | Positive | Positive | 12.5 mg/L | 12.5 mg/L | 12.5 mg/L | Negative | Negative | 50 mg/L | 25 mg/L | 12.5 mg/L | 6.25 mg/L | 50 mg/L | 25 mg/L | 12.5 mg/L |  | 12.5 mg/L | Positive |  | 
CCOC(=O)c1sc2n(c(NC(C)(C)C)c3[n+]2C(CC(=O)OC)COc2c-3cc3c4c2CCCN4CCC3)c1-c1ccccc1 (centres unmarked) [Compound 1r] | Positive | Positive | 12.5 mg/L | 12.5 mg/L | 12.5 mg/L | Negative | Negative | 50 mg/L | 25 mg/L | 12.5 mg/L | 6.25 mg/L | 50 mg/L | 25 mg/L | 12.5 mg/L |  | 12.5 mg/L | Positive |  | 
CCN(CC)c1ccc2c(c1)OCC(CC(=O)OC)[n+]1c-2c(NC(C)(C)C)n2c(-c3ccc(OC)cc3)c(-c3ccc(OC)cc3)sc21 (centres unmarked) [Compound 1h] | Positive | Positive | 6.25 mg/L | 6.25 mg/L | 3.12 mg/L | Negative | Negative | 6.25 mg/L | 6.25 mg/L | 3.12 mg/L | 1.56 mg/L | 12.5 mg/L | 6.25 mg/L | 6.25 mg/L | approximately 10 times | 6.25 mg/L | Positive | approximately 20 times | 

From patent US10526343B2, “Heterocyclic systems and pharmaceutical applications thereof” (University of Sharjah, priority 2018, dated 2020)
